Assay results: patent US20240082286A1, “COMBINATION THERAPIES FOR TREATMENT OF T-CELL LYMPHOMAS” (Otsuka Pharmaceutical Co., Ltd., priority 2022, published 2024)

Assays:
[1] = system: RIPK3; assay: RIPK3 expression by western blot after decitabine treatment, Karpas-299 cells; format: cell-based, human; conditions: 0.01, 0.1, 1 μM decitabine for 4 days, FIG. 2
[2] = system: RIPK3; assay: RIPK3 expression by western blot after decitabine treatment, CT26 cells; format: cell-based, mouse; conditions: 0.01, 0.1, 1 μM decitabine for 2 days, FIG. 2
Description: Two types of mouse cell lines (BW5147.G.1.4, a T cell lymphoma from DSMZ (Braunschweig, Germany) and CT26) were treated with 0.01, 0.1, 1 μM or no decitabine (DAC) for 2 days.

[3] = system: RIPK3 gene promoter; assay: Methylation status of RIPK3 gene by pyrosequencing (EpigenDX); format: cell-based, human; conditions: H9, Karpas-299, Sup-M2, Sup-T1 cell lines; 0.01, 0.1, 1 μM decitabine for 4 days; FIG. 3 B and C
Description: The DNA of human H9, Karpas-299, Sup-M2 (from DSMZ), and Sup-T1 (from ECACC) cell lines were sequenced to identify methylation status of the RIPK3 gene by pyrosequencing (EpigenDX). […] These cell lines were treated with 0.01, 0.1, and 1 μM decitabine (DAC) for 4 days, and DNA of the cells were sequenced to identify methylation status of the RIPK3 gene by pyrosequencing (EpigenDX).

[4] = system: LINE-1; assay: Methylation level of LINE-1 after decitabine treatment; format: cell-based, human; conditions: 0.01, 0.1, 1 μM decitabine for 4 days; FIG. 3 D
[5] = system: H9 cells; assay: IFNγ release, electrochemiluminescence immunoassay (Meso Scale Discovery); format: cell-based, human; conditions: decitabine alone 0.001-10 μM for 48 hours; FIG. 4
Description: Human T-cell lymphoma (H9) cell line was treated with decitabine (DAC) (0.001, 0.003, 0.01, 0.03, 0.1, 0.3, 1, 3 and 10 μM) for 48 hours, and the release of IFNγ was measured an electrochemiluminescence immunoassay (Meso Scale Discovery). […] Thus, the treatment by decitabine will potentially result in improved response rate to the tolinapant treatment.

[6] = system: DNMT1; assay: Western blotting of BW5147.G.1.4 lysates, DNMT1; format: cell-based, mouse; conditions: 48 hours, as the concentration of decitabine increased, FIG. 8
Description: After 48 hours, the cell was lysated and interferon signaling and PD markers were analyzed by Western blotting, as shown in FIG. 8.

[7] = system: KARPAS-299 xenograft mouse model; assay: Gene expression changes in KARPAS-299 xenografts; format: in vivo; conditions: treated for five days, FIG. 12
Description: KARPAS-299 xenograft mouse model was prepared by injecting KARPAS-299 cells. The mice bearing the KARPAS-299 xenografts were treated with decitabine (DAC) and/or tolinapant for five days. The tumor cells were collected and analyzed for gene expression changes (FIG. 12).

[8] = system: RIPK3; assay: RIPK3 western blotting of KARPAS-299 xenograft cell lysates; format: in vivo, mouse; conditions: five days treatment, FIG. 13
[9] = system: CT26 cells; assay: Lytic cell death by real-time microscopy (IncuCyte) in CT26 control and RIPK3 re-expressed CT26 cells; format: cell-based, mouse; conditions: 1 μM tolinapant; RIPK3 re-expressed CT26 cells versus CT26 control cells; FIG. 1B
Description: CRISPR activation (CRISPRa) was used to re-express RIPK3 in the CT26 line (from ATCC) (FIG. 1A). […] The lytic cell death upon treatment of tolinapant was measured for the CT26 control cells and the RIPK3 re-expressed CT26 cells, by real-time microscopy (IncuCyte) assays (FIG. 1B).

[10] = system: clAP1; assay: Western blotting of BW5147.G.1.4 lysates, clAP1; format: cell-based, mouse; conditions: 48 hours, when tolinapant was added to decitabine, FIG. 8
Description: After 48 hours, the cell was lysated and interferon signaling and PD markers were analyzed by Western blotting, as shown in FIG. 8. From the western blot, it was confirmed that the expression of DNMT1 was reduced as the concentration of decitabine increased, and the expression of clAP1 was suppressed when tolinapant was added.

SMILES	RIPK3 expression [1]	RIPK3 expression [2]	methylation of RIPK3 gene promoter [3]	methylation of LINE-1 [4]	IFNγ released from H9 cells [5]	expression of DNMT1 [6]	gene expression changes in tumor cells [7]	RIPK3 re-expression by western blotting [8]	lytic cell death upon treatment of tolinapant [9]	expression of clAP1 [10]
Nc1ncn([C@H]2C[C@H](O)[C@@H](CO)O2)c(=O)n1 [decitabine, 5-aza-2′-deoxycytidine]	RIPK3 expression was detected	RIPK3 expression was detected	demethylation of RIPK3 gene promoter	demethylation of LINE-1	increased	reduced	upregulation of interferons, and other cytokines/chemokines and cancer testis antigens	re-expression of RIPK3 was also confirmed		
C[C@@H]1CN(CC(=O)N2CC(C)(C)c3nc(CO)c(Cc4ccc(F)cc4)cc32)[C@@H](CN2CCOC[C@H]2C)CN1 [tolinapant, 1-(6-(4-fluorobenzyl)-5-(hydroxymethyl)-3,3-dimethyl-2,3-dihydro-1H-pyrrolo[3,2-b]pyridin-1-yl)-2-((2R,5R)-5-methyl-2-(((R)-3-methylmorpholino)methyl)piperazin-1-yl)ethan-1-one]									higher lytic cell death	suppressed
